Test results as given in DBAASP.
Values after ≈ are worked out from the molar mass of the structure shown. Values joined by “and” are separate entries in the source; they are usually repeats but may differ in a detail not shown here. Equal entries are not always repeated.

Key:
Assay in all cases: ≥ marks a high value that may be exact or a test limit, other limits are often not marked, values filed in µg/mL are converted to µM
Enterococcus faecium = tested on: Enterococcus faecium
[1] = tested on: Pseudomonas aeruginosa KCTC 1637
[2] = tested on: Salmonella typhimurium KCTC 1926
[3] = tested on: Bacillus subtilis KCTC 3068
Enterococcus faecalis = tested on: Enterococcus faecalis
[4] = tested on: Staphylococcus aureus KCTC 1621
Enterococcus faecium VR = tested on: Enterococcus faecium VR
Enterococcus faecalis VR = tested on: Enterococcus faecalis VR
Staphylococcus aureus MR = tested on: Staphylococcus aureus MR
[5] = tested on: Staphylococcus epidermidis KCTC 1917
[6] = tested on: Escherichia coli KCTC 1682
[7] = tested on: Acinetobacter baumannii ATCC 15308
Streptococcus pneumoniae = tested on: Streptococcus pneumoniae
Citrobacter sp. = tested on: Citrobacter sp.
[8] = tested on: Pseudomonas aeruginosa ATCC 15442
[9] = tested on: Escherichia coli ATCC 25922
Enterobacter cloacae = tested on: Enterobacter cloacae
Staphylococcus aureus = tested on: Staphylococcus aureus
[10] = tested on: Staphylococcus aureus ATCC 25923
Klebsiella pneumoniae = tested on: Klebsiella pneumoniae
[11] = tested on: Escherichia coli CCARM 1229
[12] = tested on: Pseudomonas aeruginosa 3592
[13] = tested on: Pseudomonas aeruginosa ATCC 27853
[14] = tested on: Listeria monocytogenes KCTC 3710
[15] = tested on: Staphylococcus aureus CCARM 3709
[16] = tested on: Salmonella typhimurium CCARM 8009
[17] = tested on: Pseudomonas aeruginosa 5018
[18] = tested on: Salmonella typhimurium CCARM 8013
[19] = tested on: Staphylococcus aureus CCARM 3114
[20] = tested on: Staphylococcus epidermidis
[21] = tested on: Escherichia coli BL21(DE3)
Pseudomonas aeruginosa = tested on: Pseudomonas aeruginosa
Candida albicans = tested on: Candida albicans
[22] = tested on: Escherichia coli BL21 (DE3)-NDM-1
Escherichia coli = tested on: Escherichia coli
[23] = tested on: Candida albicans ATCC 10231
Candida albicans MDM8 = tested on: Candida albicans MDM8
Micrococcus luteus A270 = tested on: Micrococcus luteus A270
Escherichia coli SBS 363 = tested on: Escherichia coli SBS 363
[24] = tested on: Salmonella enterica subsp. arizonae ATCC 13314
[25] = tested on: Acinetobacter baumannii ATCC 19606
[26] = tested on: Pseudomonas aeruginosa ATCC 10145
[27] = tested on: Pseudomonas aeruginosa ATCC 9721
[28] = tested on: Pseudomonas aeruginosa ATCC BAA-1744
[29] = tested on: Pseudomonas aeruginosa ATCC 35032
[30] = tested on: Pseudomonas aeruginosa 1109
[31] = tested on: Acinetobacter baumannii ATCC BAA-1605
[32] = tested on: Pseudomonas aeruginosa ATCC 25619
[33] = tested on: Pseudomonas aeruginosa ATCC 9027
[34] = tested on: Acinetobacter baumannii NR-9667
[35] = tested on: Acinetobacter baumannii ATCC BAA-747
[36] = tested on: Pseudomonas aeruginosa 1125
[37] = tested on: Acinetobacter baumannii NR-13375

`CC[C@H](C)[C@H](NC(=O)[C@H](CS)NC(=O)[C@H](Cc1cnc[nH]1)NC(=O)[C@H](C)NC(=O)[C@H](C)N)C(=O)N[C@H](C(=O)N[C@@H](CC(C)C)C(=O)N[C@@H](Cc1cnc[nH]1)C(=O)N[C@@H](Cc1cnc[nH]1)C(=O)N[C@@H](CC(N)=O)C(N)=O)C(C)C` [AAHCIVLHHN] was tested, and the MIC (Enterococcus faecium) was 30 µM (≈ 33.4 µg/mL), the MIC [1] was 15 µM (≈ 16.7 µg/mL) and the MIC [2] was 30 µM (≈ 33.4 µg/mL). The MIC [3] was 15 µM (≈ 16.7 µg/mL), the MIC (Enterococcus faecalis) was 30 µM (≈ 33.4 µg/mL) and the MIC [4] was 30 µM (≈ 33.4 µg/mL). For the same compound, the MIC (Enterococcus faecium VR) was 30 µM (≈ 33.4 µg/mL), the MIC (Enterococcus faecalis VR) was 30 µM (≈ 33.4 µg/mL) and the MIC (Staphylococcus aureus MR) was 30 µM (≈ 33.4 µg/mL). The MIC [5] was 15 µM (≈ 16.7 µg/mL) and the MIC [6] was 30 µM (≈ 33.4 µg/mL).
With `CC[C@H](C)[C@H](NC(=O)[C@H](CCSC)NC(=O)[C@H](C)NC(=O)[C@@H]1CCCN1C(=O)[C@@H](NC(=O)[C@@H](NC(=O)[C@H](CCCCN)NC(=O)[C@@H](NC(=O)[C@H](CC(C)C)NC(=O)CNC(=O)CNC(=O)[C@H](CC(C)C)NC(=O)[C@@H](N)Cc1ccccc1)[C@@H](C)CC)[C@@H](C)CC)C(C)C)C(=O)N[C@H]1CSSC[C@@H](C(=O)O)NC(=O)[C@H](CCCCN)NC(=O)[C@H](CCCCN)NC(=O)[C@H](CCCN=C(N)N)NC(=O)[C@H](C(C)C)NC(=O)[C@H](C)NC1=O` [FLGGLIKIVPAMICAVRKKC] the MIC [7] was ≥ 116 µM, the MIC (Streptococcus pneumoniae) was ≥ 116 µM and the MIC (Citrobacter sp.) was ≥ 116 µM. The MIC [8] was ≥ 116 µM, the MIC [9] was 116 µM (≈ 250 µg/mL) and the MIC (Enterobacter cloacae) was ≥ 116 µM. The MIC (Staphylococcus aureus) was 116 µM (≈ 250 µg/mL), the MIC [10] was 57.8 µM (≈ 125 µg/mL) and the MIC (Klebsiella pneumoniae) was > 116 µM.
`CC[C@H](C)[C@H](NC(=O)[C@H](Cc1c[nH]c2ccccc12)NC(=O)[C@H](CCCN=C(N)N)NC(=O)[C@@H](NC(=O)[C@@H](N)CCCN=C(N)N)[C@@H](C)CC)C(=O)N[C@@H](CC(C)C)C(=O)N[C@@H](CCCN=C(N)N)C(=O)N[C@@H](Cc1ccc(O)cc1)C(=O)N[C@@H](Cc1c[nH]c2ccccc12)C(=O)N[C@@H](CCCN=C(N)N)C(=O)N[C@@H](Cc1c[nH]c2ccccc12)C(=O)N[C@@H](CO)C(=O)O` [RIRWILRYWRWS] was tested, and the MIC [11] was 1 µM and 2 µM, the MIC [2] was 2 µM (≈ 3.58 µg/mL) and the MIC [12] was 8 µM (≈ 14.3 µg/mL). The MIC [13] was 4 µM (≈ 7.16 µg/mL), the MIC [14] was 4 µM (≈ 7.16 µg/mL) and the MIC [9] was 2 µM (≈ 3.58 µg/mL). The MIC [15] was 2 µM and 4 µM, the MIC [16] was 4 µM (≈ 7.16 µg/mL) and the MIC [17] was 8 µM (≈ 14.3 µg/mL). The MIC [18] was 4 µM and 8 µM, the MIC [10] was 1 µM (≈ 1.79 µg/mL) and the MIC [19] was 8 µM and 16 µM.
Work on `CC(C)C[C@H](NC(=O)[C@H](CCCCN)NC(=O)[C@H](CCCN=C(N)N)NC(=O)[C@H](Cc1ccccc1)NC(=O)[C@H](Cc1ccccc1)NC(=O)[C@H](CCCCN)NC(=O)[C@H](CCCN=C(N)N)NC(=O)[C@H](CC(C)C)NC(=O)[C@H](CC(C)C)NC(=O)[C@@H](N)CCCN=C(N)N)C(=O)N[C@@H](CCCCN)C(=O)N[C@@H](CCCCN)C(=O)N[C@@H](CO)C(=O)N[C@H](C(=O)O)C(C)C` [RLLRKFFRKLKKSV] yielded an MIC [20] of 17.6 µM (≈ 32 µg/mL), an MIC [21] of 8.79 µM (≈ 16 µg/mL) and an MIC (Pseudomonas aeruginosa) of 17.6 µM (≈ 32 µg/mL). The MIC [13] was 8.79 µM (≈ 16 µg/mL), the MIC [9] was 17.6 µM (≈ 32 µg/mL) and the MIC (Candida albicans) was 35.2 µM (≈ 64 µg/mL). It also gave an MIC [22] of 4.4 µM (≈ 8 µg/mL), an MIC (Staphylococcus aureus) of 17.6 µM (≈ 32 µg/mL) and an MIC (Escherichia coli) of 17.6 µM (≈ 32 µg/mL). It also gave an MIC [10] of 35.2 µM (≈ 64 µg/mL), an MIC [23] of 35.2 µM (≈ 64 µg/mL) and an MIC (Klebsiella pneumoniae) of 17.6 µM (≈ 32 µg/mL).
`CC[C@H](C)[C@H](NC(=O)[C@H](CC(C)C)NC(=O)[C@H](CO)NC(=O)[C@H](CC(C)C)NC(=O)[C@H](CC(C)C)NC(=O)[C@@H](N)CO)C(=O)N[C@@H](CCCN=C(N)N)C(=O)N[C@@H](CC(C)C)C(=O)N[C@@H](CC(C)C)C(=O)N[C@H](C(=O)N[C@H](C(N)=O)[C@@H](C)O)[C@@H](C)CC` [SLLSLIRLLIT] showed an MIC (Candida albicans MDM8) of 12.5 µM (≈ 15.5 µg/mL), an MIC [13] of 1.6 µM (≈ 1.98 µg/mL) and an MIC (Micrococcus luteus A270) of 12.5 µM (≈ 15.5 µg/mL). The MIC (Escherichia coli SBS 363) was 12.5 µM (≈ 15.5 µg/mL) and the MIC [24] was ≥ 50 µM.
`CC[C@H](C)[C@H](NC(=O)[C@H](Cc1c[nH]c2ccccc12)NC(=O)[C@H](CCCCN)NC(=O)[C@H](CCCCN)NC(=O)[C@@H](NC(=O)[C@H](CCCN=C(N)N)NC(=O)[C@H](CCCN=C(N)N)NC(=O)[C@@H](NC(=O)[C@@H](N)Cc1c[nH]c2ccccc12)[C@@H](C)CC)[C@@H](C)CC)C(=O)N[C@@H](CCCN=C(N)N)C(=O)N[C@@H](CCCN=C(N)N)C(=O)N[C@H](C(=O)N[C@@H](Cc1cnc[nH]1)C(=O)N[C@@H](CCCCN)C(=O)O)C(C)C` [WIRRIKKWIRRVHK] was tested, and the MIC [25] was 2 µM (≈ 3.95 µg/mL), the MIC [26] was 8 µM (≈ 15.8 µg/mL) and the MIC [27] was 8 µM (≈ 15.8 µg/mL). It also gave an MIC [28] of 16 µM (≈ 31.6 µg/mL), an MIC [29] of 16 µM (≈ 31.6 µg/mL) and an MIC [30] of 16 µM (≈ 31.6 µg/mL). It also gave an MIC [13] of 8 µM (≈ 15.8 µg/mL), an MIC [8] of 16 µM (≈ 31.6 µg/mL) and an MIC [31] of 4 µM (≈ 7.9 µg/mL). For the same compound, the MIC [32] was 8 µM (≈ 15.8 µg/mL), the MIC [33] was 4 µM (≈ 7.9 µg/mL) and the MIC [34] was 4 µM (≈ 7.9 µg/mL). The MIC [35] was 4 µM (≈ 7.9 µg/mL), the MIC [36] was ≥ 32 µM and the MIC [37] was 2 µM (≈ 3.95 µg/mL).
